≈ marks a conversion by molar mass, not a printed value. Where a SMILES comes first, the peptide text is derived from it.
Key:
[1] = tested on: S. epidermidis cra4029 (SE 02); assay type: cell-based
Description: (§1) The experimental scheme reported in Figure 6 helped to simplify and optimize the in vitro testing of the antibacterial activity of the different AMPs. The initial transparent microtiter plate for the determination of the minimum inhibitory concentration (MIC) by optical density (OD) measurement was conveniently used as a starting point not only for the alterative determination of the MIC by luminescence but also for the minimum bactericidal concentration (MBC) and for the minimum biofilm inhibitory concentration (MBIC), as explained below. For every test peptide, at least three independent experiments were performed on each bacterial strain per test condition (100% MHB and 20% MHB). The sole exception to this rule was when MIC values were on rare occasions found to be greater than 500 µg/mL. Under these circumstances, two consecutive experiments were performed to confirm the results. In this case, the antibacterial activity was considered insignificant and the third experiment was generally considered unnecessary.
The antibacterial properties of the test AMPs were assayed under two distinct conditions of bacterial culture: (i) with bacteria cultured in undiluted Mueller–Hinton II Broth (MHB II) and (ii) with bacteria cultured in diluted MHB II as earlier described in Campoccia et al.. Briefly, a few colonies of each bacterial strain, taken from overnight cultures on Mueller–Hinton Agar plates (MHA, PO50007A, ThermoScientific, Thermo Fisher Scientific, Segrate, Italy), were resuspended in Mueller–Hinton II Broth (MHB II, 24107, Liofilchem, Roseto degli Abruzzi, Italy), either undiluted or at a 20% dilution in deionized water. The concentration of bacteria was adjusted to approximately 10^8 CFU/mL, as estimated by optical density reading at 625 nm, using a Hewlett Packard G1103A spectrophotometer (Waldbronn, Germany). The bacterial suspension was further diluted 1:100 in 100% or 20% MHB II. […]
For assessing the MBC, 10 μL of bacterial suspensions was taken from wells corresponding to MIC, 2× MIC, and 4× MIC and then plated on MHA plates. […] The MBC was determined as the lowest dilution causing absence of bacterial colonies growth on the plate.
In order to assess the extent of the interference of the culture medium composition with the antibacterial activity of the three peptides, a “Rate of Abatement” of the bactericidal properties (RoA) was calculated using the following formula (Equation (1)):RoA = MBCMHB/MBC20% MHB(1)
RoA indicates the fold increases in the MBC when tested in undiluted medium […], i.e., with maximal interference of broth polyanionic substances, with respect to diluted medium […]. […] A more versatile measure to express the loss of activity was calculated as follows. […]

E. coli cra4038 (EC) = assay type: cell-based; settings: cra4038 (EC)
Description: as §1
(§2) The antibacterial properties of the test AMPs were assayed under two distinct conditions of bacterial culture: (i) with bacteria cultured in undiluted Mueller–Hinton II Broth (MHB II) and (ii) with bacteria cultured in diluted MHB II as earlier described in Campoccia et al.. Briefly, a few colonies of each bacterial strain, taken from overnight cultures on Mueller–Hinton Agar plates (MHA, PO50007A, ThermoScientific, Thermo Fisher Scientific, Segrate, Italy), were resuspended in Mueller–Hinton II Broth (MHB II, 24107, Liofilchem, Roseto degli Abruzzi, Italy), either undiluted or at a 20% dilution in deionized water. The concentration of bacteria was adjusted to approximately 10^8 CFU/mL, as estimated by optical density reading at 625 nm, using a Hewlett Packard G1103A spectrophotometer (Waldbronn, Germany). The bacterial suspension was further diluted 1:100 in 100% or 20% MHB II.
(§3) Serial 1:2 dilutions of all the test peptides were prepared in sterile deionized water starting from a stock solution of 1 mg/mL. Microtiter plates (96-Well CytoOne® Plate, CC7672-7596, Starlab S.r.l., Milano, Italy) were prepared by adding a volume of 100 µL of inoculum to 100 µL of treatment. Each AMP dilution was assayed in triplicate; each microplate included triplicate wells for the blank (100 µL of sterile distilled water and 100 µL of sterile MHB II), and 3 to 6 wells for reference control of 100% growth (100 µL of sterile deionized water and 100 µL of MHB II inoculated with the bacterium). Positive controls were performed in triplicate wells with 100 µL of a 10 mg/mL gentamicin solution (G1272, Sigma Aldrich, Milan, Italy) and with 100 µL of a solution containing 10,000 units/mL of penicillin and 10,000 µg/mL of streptomycin (penicillin–streptomycin, 15140-122, Life Technologies, Monza, Italy).
(§4) The wells of the microplate, initially used for the determination of the MIC, were rinsed twice with 220 µL of phosphate-buffered solution (PBS) to remove loosely attached and planktonic bacteria. A total of 100 µL of fresh PBS and 100 µL of Bac-Titer Glo solution (G8231, Promega Italia S.r.l., Milan, Italy) were added to each well. After a 10 min incubation, a volume of 100 µL was transferred to a new microplate for luminescence determination as described above. As a general rule, the MBIC value was identified as the concentration at which a reduction of at least a log in the metabolic activity was observed.

[2] = tested on: E. faecalis cra4024 (EF 01); assay type: cell-based
Description: as §1, §2, §3, §4

[3] = tested on: E. faecalis cra4033 (EF 02); assay type: cell-based
Description: as §1, §2, §3, §4

[4] = tested on: P. aeruginosa cra3840 (PA 02); assay type: cell-based; settings: cra3840 (PA 02, 24 h)
Description: as §1, §2, §3, §4

[5] = tested on: P. aeruginosa cra4004 (PA 01); assay type: cell-based
Description: as §1, §2, §3, §4

[6] = tested on: S. aureus cra2198 (SA 02); assay type: cell-based; settings: cra2198 (SA 02)
Description: as §1, §2, §3, §4

[7] = tested on: S. aureus cra4030 (SA 01); assay type: cell-based; settings: cra4030 (SA 01, 24 h)
Description: as §1, §2, §3, §4

[8] = tested on: S. epidermidis cra4029 (SE 02); assay type: cell-based; remark: listed apart in the source
Description: as §1, §2, §3, §4

[9] = tested on: S. epidermidis cra4034 (SE 01); assay type: cell-based; settings: cra4034 (SE 01)
Description: as §1, §2, §3, §4

[10] = cited from earlier work
Description: In 2021, aiming at identifying AMPs for a possible application in the prevention or treatment of prosthetic orthopedic infections, our group conducted an extensive systematic review on known short-chain AMPs, primarily based on the Database of Antimicrobial Activity and Structure of Peptides (DBAASP). The choice of considering short-chain peptides was dictated by the potentially lower allergenic risk offered by small peptides. The query included all monomeric AMPs with a length spanning from 7 to 13 amino acids. The research results provided a list of 415 entries, which were then extend ...

CC(C)[C@H](NC(=O)[C@H](Cc1c[nH]c2ccccc12)NC(=O)[C@H](Cc1ccccc1)NC(=O)[C@@H](NC(=O)[C@@H](NC(=O)[C@H](CCCCN)NC(=O)[C@@H](N)CCCCN)C(C)C)C(C)C)C(=O)N[C@@H](CCCCN)C(=O)N[C@@H](Cc1ccccc1)C(=O)N[C@@H](CCCCN)C(=O)O [KSL-W] (H-KKVVFWVKFK-OH)
MBC [1]: 1.95 µg/mL (≈ 1.49 µM)
LR, Log10 reduction in bacterial metabolism for a given MBIC (E. coli cra4038 (EC)): 3 LR
LR, Log10 reduction in bacterial metabolism for a given MBIC ([2]; cra4024 (EF 01)): 3 LR
MBIC ([2]; cra4024 (EF 01, 24 h)): 3.91 to 7.81 µg/mL
LR, Log10 reduction in bacterial metabolism for a given MBIC ([3]; cra4033 (EF 02)): 2 LR
MBIC ([3]; cra4033 (EF 02, 24 h)): 3.91 µg/mL
MBIC [4]: 31.25 µg/mL
LR, Log10 reduction in bacterial metabolism for a given MBIC [5]: 2 LR
LR, Log10 reduction in bacterial metabolism for a given MBIC [6]: 3 LR
MBIC [7]: 31.25 µg/mL
LR, Log10 reduction in bacterial metabolism for a given MBIC ([8]; cra4029 (SE 02)): 2 LR
MBIC ([8]; cra4029 (SE 02, 24 h)): 0.24 to 0.49 µg/mL
LR, Log10 reduction in bacterial metabolism for a given MBIC [9]: 3 LR
stability to enzymic activity such as trypsin-catalyzed cleavage [10]: greater stability
